Read-outs that look alike come from different tables or passages of the source.

Data set [1] is described as follows: Pharmacokinetics. The following applies: both, rhesus monkey, sc.
The nature of data set [2]: in vitro. The following applies: plasma, pH 7.4.
A short description of data set [3]: Plasma protein binding by equilibrium dialysis. Background: In equilibrium dialysis only unbound substance equilibrates across the membrane.
The conditions of data set [4]: CNO 10 mg/kg IM, monkeys; cited from earlier work.
The conditions of data set [5]: rhesus monkey, in vivo, sc.
Data set [6] addresses T1, BCRP (MDCK-BCRP) (Homo sapiens, UniProt Q9UNQ0).
T1 sequence (Q9UNQ0 1-655): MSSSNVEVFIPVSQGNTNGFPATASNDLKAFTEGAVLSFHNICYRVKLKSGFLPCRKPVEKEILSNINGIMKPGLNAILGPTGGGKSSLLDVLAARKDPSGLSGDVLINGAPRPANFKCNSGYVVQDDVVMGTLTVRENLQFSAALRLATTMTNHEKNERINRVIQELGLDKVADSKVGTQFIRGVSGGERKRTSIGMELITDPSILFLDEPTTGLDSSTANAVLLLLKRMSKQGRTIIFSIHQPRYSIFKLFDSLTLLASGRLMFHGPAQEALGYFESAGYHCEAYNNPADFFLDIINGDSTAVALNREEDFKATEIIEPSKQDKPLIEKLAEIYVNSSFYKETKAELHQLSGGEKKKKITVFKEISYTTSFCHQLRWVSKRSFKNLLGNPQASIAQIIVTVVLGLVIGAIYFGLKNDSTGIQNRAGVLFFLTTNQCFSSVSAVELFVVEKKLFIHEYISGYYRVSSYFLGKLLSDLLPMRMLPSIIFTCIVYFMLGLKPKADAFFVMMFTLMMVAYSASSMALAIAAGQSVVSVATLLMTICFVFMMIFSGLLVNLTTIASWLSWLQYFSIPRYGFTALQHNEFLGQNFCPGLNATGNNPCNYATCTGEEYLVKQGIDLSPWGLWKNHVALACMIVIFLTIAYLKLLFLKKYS
Put plainly: Bidirectional transport across BCRP-MDCK cell monolayers. Format: in vitro ADME. The following applies: MDCK-BCRP monolayer; CNO 5 μM; 120 min; no inhibitor.

Data set [7] concerns the target human Pgp (MDCK-MDR1) (Homo sapiens, UniProt P08183). Put plainly: Bidirectional transport across MDR1-MDCK cell monolayers. Format: in vitro ADME. The following applies: CNO 5 μM.
Setting [8] is: MDCK-Pgp monolayer, 120 min, no inhibitor.

Sequence of human Pgp (MDCK-MDR1) (P08183 whole entry): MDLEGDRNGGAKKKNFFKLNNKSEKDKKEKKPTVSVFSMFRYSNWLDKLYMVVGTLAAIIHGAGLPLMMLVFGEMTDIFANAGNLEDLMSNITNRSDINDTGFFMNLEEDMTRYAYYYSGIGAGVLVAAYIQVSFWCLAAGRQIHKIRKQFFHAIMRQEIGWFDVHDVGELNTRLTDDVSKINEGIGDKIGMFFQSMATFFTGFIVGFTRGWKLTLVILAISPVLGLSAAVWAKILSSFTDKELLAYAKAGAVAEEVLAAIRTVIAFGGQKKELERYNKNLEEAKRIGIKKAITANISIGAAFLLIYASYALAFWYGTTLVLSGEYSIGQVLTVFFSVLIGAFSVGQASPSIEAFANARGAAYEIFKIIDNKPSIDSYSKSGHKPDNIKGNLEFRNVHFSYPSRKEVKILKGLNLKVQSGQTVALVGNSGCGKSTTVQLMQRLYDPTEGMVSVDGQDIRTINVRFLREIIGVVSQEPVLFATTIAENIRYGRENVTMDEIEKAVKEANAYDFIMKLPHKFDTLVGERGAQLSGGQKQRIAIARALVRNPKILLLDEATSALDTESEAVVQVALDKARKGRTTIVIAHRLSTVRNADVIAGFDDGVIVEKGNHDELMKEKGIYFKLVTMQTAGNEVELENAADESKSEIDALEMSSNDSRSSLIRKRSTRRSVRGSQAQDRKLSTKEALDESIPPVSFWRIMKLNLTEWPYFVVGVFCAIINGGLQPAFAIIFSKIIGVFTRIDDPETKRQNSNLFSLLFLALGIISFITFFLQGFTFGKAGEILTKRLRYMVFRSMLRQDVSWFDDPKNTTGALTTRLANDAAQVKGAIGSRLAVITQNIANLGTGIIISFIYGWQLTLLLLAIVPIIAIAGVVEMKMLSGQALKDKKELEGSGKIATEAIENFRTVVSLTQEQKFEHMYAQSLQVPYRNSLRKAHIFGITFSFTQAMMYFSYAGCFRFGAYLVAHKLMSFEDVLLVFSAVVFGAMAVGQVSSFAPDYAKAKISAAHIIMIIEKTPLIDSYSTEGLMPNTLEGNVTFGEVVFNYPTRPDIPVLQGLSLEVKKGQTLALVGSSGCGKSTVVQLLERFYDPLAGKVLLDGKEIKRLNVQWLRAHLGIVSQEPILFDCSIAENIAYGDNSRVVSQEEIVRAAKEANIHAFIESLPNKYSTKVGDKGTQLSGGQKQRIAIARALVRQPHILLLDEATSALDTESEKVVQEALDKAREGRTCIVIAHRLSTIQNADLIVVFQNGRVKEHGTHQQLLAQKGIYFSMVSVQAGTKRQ

Broadly, the fraction unbound is the share of the substance not bound to proteins or other matrix. `Clc1ccc2c(c1)N=C(N1CCNCC1)c1ccccc1N2` [N-desmethylclozapine]: the Tmax came to 24 h in data set [1] (CSF, 3 mg/kg); 24 h in data set [1] (CSF, 10 mg/kg); 24 h in data set [1] (plasma, 3 mg/kg). In addition, the fraction unbound at 4 h, 1 μM in data set [2] worked out at 0.11.

In the case of `CN1CCN(C2=Nc3cc(Cl)ccc3Nc3ccccc32)CC1` [clozapine], the Tmax is 2.67 h in data set [1] (CSF, 3 mg/kg); 2.67 h in data set [1] (CSF, 10 mg/kg); 2.67 h in data set [1] (plasma, 3 mg/kg). The compound further gave a free fraction (fraction unbound) at 4 h, 1 μM in data set [3] (pH 7.4) of 0.05.

Usually AUC stands for concentration integrated over time. A word on the Cmax: it is the maximum level reached in the sampled fluid or tissue. With clozapine-N-oxide [CNO], in data set [4], the “Tmax in CSF” value was 1 h and the “average concentration in CSF” value is 9 ng/mL. For the same compound, the exposure (AUC) at 3 mg/kg as share of AUC at 10 mg/kg in data set [5] is recorded as “approximately 65%”. For the same compound, the area under the curve (AUC) in data set [5] (3 mg/kg) was found to be 519 ng·h/mL. Also, in data set [5] (10 mg/kg), the AUC came to 795 ng·h/mL, the highest concentration (Cmax) was 7 µM and the Tmax is recorded as 90 min ^b. In data set [6], the “A-B permeability (Papp)” value came to 0.07 ×10⁻⁶ cm/s and the “B-A permeability (Papp)” value stood at 0.21 ×10⁻⁶ cm/s. Moreover, in data set [3] (1 μM, 4 h at 37 °C, equilibrium dialysis), the “fu (fraction unbound), PPB” value came to 0.43. In data set [7] (setting [8]), the “A-B permeability (Papp)” value was found to be 0.05 ×10⁻⁶ cm/s and the “B-A permeability (Papp)” value stood at 1 ×10⁻⁶ cm/s. In data set [7] (MDCK-Pgp), the Pgp substrate assessment entry is on record as “substrate of Pgp”.

Values taken from paper PMC5522181 (ACS chemical neuroscience, 2017).
